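In this assay, cells in 96-well plates receive the compound at five concentrations for 48 hours. Endpoints are linearly interpolated between the surrounding concentrations. Definition used: TGI = concentration required for complete inhibition of growth.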
What was measured:
Assay in all cases: NCI tumour cell line growth inhibition, 48 h
SF-539 CNS = test system: SF-539 CNS
OVCAR-4 ovarian = test system: OVCAR-4 ovarian
NCI-H23 lung = test system: NCI-H23 lung
BT-549 breast = test system: BT-549 breast
HCC-2998 colon = test system: HCC-2998 colon
786-0 renal = test system: 786-0 renal
SF-295 CNS = test system: SF-295 CNS
SW-620 colon = test system: SW-620 colon
SNB-19 CNS = test system: SNB-19 CNS
HCT-116 colon = test system: HCT-116 colon
NCI-H460 lung = test system: NCI-H460 lung
DU-145 prostate = test system: DU-145 prostate
M14 melanoma = test system: M14 melanoma
OVCAR-3 ovarian = test system: OVCAR-3 ovarian
OVCAR-8 ovarian = test system: OVCAR-8 ovarian
KM12 colon = test system: KM12 colon
UACC-62 melanoma = test system: UACC-62 melanoma
SK-MEL-2 melanoma = test system: SK-MEL-2 melanoma
RXF 393 renal = test system: RXF 393 renal

| Structure (SMILES) | TGI (SF-539 CNS) [µM] | TGI (OVCAR-4 ovarian) [µM] | TGI (NCI-H23 lung) [µM] | TGI (BT-549 breast) [µM] | TGI (HCC-2998 colon) [µM] | TGI (786-0 renal) [µM] | TGI (SF-295 CNS) [µM] | TGI (SW-620 colon) [µM] | TGI (SNB-19 CNS) [µM] | TGI (HCT-116 colon) [µM] | TGI (NCI-H460 lung) [µM] | TGI (DU-145 prostate) [µM] | TGI (M14 melanoma) [µM] | TGI (OVCAR-3 ovarian) [µM] | TGI (OVCAR-8 ovarian) [µM] | TGI (KM12 colon) [µM] | TGI (UACC-62 melanoma) [µM] | TGI (SK-MEL-2 melanoma) [µM] | TGI (RXF 393 renal) [µM] |
| --- | --- | --- | --- | --- | --- | --- | --- | --- | --- | --- | --- | --- | --- | --- | --- | --- | --- | --- | --- |
| Cc1nc2ccccc2c(=O)n1NC(=O)c1ccc(CS)cc1 | 26.6 | > 100 | 52.1 | 46.3 | 45.8 | 23.6 | > 100 | 21.7 | > 100 | 16.9 | 60.4 | 88.2 | 34.2 | 30.6 | > 100 | 63.7 |  |  |  |
| Cc1ccc(/C=N/n2c(=O)[nH]c3ccccc3c2=O)cc1 | > 100 |  | > 100 | > 100 |  | > 100 | > 100 | > 100 | > 100 | > 100 | > 100 | > 100 | > 100 | > 100 |  | > 100 | > 100 | > 100 |  |
| CCC(C)(C)/C(CC(O)(C(F)(F)F)C(F)(F)F)=N\O | > 100 | > 100 | > 100 |  | > 100 | > 100 | > 100 | > 100 | > 100 | > 100 | > 100 | > 100 | > 100 | > 100 |  | > 100 | > 100 | > 100 | > 100 |
| C=C1CC(c2ccc(OCCCN3C(=O)c4ccccc4C3=O)c(OC)c2)OC1=O (stereo not drawn) | 1.69 |  | 18.4 |  | 27.7 | 14.6 | 26.3 | 4.75 | 28 | 6.6 | 14.5 | 24.5 | 17.3 | 8.96 | 15.1 | 28.2 | 10.2 | 18.4 | 7 |
| C[C@]12CC[C@H](O)CC1=CC[C@@H]1[C@@H]2CC[C@]2(C)C(=O)[C@@H](N3CCOCC3)C[C@@H]12 | > 100 | > 100 | > 100 |  | > 100 | > 100 | > 100 | > 100 | > 100 | > 100 | > 100 | > 100 | > 100 | > 100 | > 100 | > 100 | > 100 | > 100 | > 100 |
| CCOC(=O)C1(Cc2ccc3c(c2)CCC3)Cc2cc3c(cc2C1)CCC3 | 99.4 | 87.9 | > 100 | > 100 | 64.4 | > 100 | 70.8 | > 100 | > 100 | > 100 | 93.5 | > 100 | 55.9 | > 100 | > 100 | > 100 | > 100 | > 100 |  |
| Cc1cc2nc3c(C#N)c(-c4ccccc4)cc(Nc4ccc(Cl)cc4)n3c2cc1C | > 100 | > 100 | > 100 | > 100 | > 100 | > 100 | > 100 | > 100 | > 100 | > 100 | > 100 |  | > 100 | > 100 | > 100 | > 100 |  | > 100 | > 100 |
